Laboratory results from patent US20030215462A1, “Use of UGT inhibitors to increase bioavailability” (priority 2001, published 2003).
Several values for one entry are separate records, joined by “and”; a condition that tells them apart may be missing. Identical values can stand only once. Values belong to the molecule of their own block, whether it stands above or below them.

Assays:
UGT1A1 [1] = target: T1, UGT1A1 (Homo sapiens, UniProt P22309); assay: Substrate glucuronidation by recombinant UGT1A1; settings: for 7-HFC glucuronidation rate: 7-HFC 50 μM
T1 sequence (P22309 26-533): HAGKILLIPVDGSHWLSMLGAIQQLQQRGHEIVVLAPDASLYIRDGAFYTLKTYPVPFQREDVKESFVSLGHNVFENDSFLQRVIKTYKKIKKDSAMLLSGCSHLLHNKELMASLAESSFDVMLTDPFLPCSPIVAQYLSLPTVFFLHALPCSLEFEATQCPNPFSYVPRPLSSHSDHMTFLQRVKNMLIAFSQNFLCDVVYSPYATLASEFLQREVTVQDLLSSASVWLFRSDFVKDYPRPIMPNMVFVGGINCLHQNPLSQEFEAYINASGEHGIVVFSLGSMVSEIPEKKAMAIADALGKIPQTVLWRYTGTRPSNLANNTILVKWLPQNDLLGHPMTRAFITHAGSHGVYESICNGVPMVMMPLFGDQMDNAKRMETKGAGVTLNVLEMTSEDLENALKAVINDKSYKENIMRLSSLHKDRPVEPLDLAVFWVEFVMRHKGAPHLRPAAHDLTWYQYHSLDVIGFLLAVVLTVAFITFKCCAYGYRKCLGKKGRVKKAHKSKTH

[2] = Glucuronidation of UGT substrates by human liver microsomes; settings: human, human liver microsomes, pH 7.5
human liver microsomes = assay: as above; settings: for 7-HFC glucuronidation rate: 100 μg/ml protein, 1 mM UDPGA, 15 min
UGT1A3 [3] = target: T2, UGT1A3 (Homo sapiens, UniProt P35503); assay: Substrate glucuronidation by recombinant UGT1A3; settings: for 7-HFC glucuronidation rate: 7-HFC 50 μM
T2 sequence (P35503 29-534): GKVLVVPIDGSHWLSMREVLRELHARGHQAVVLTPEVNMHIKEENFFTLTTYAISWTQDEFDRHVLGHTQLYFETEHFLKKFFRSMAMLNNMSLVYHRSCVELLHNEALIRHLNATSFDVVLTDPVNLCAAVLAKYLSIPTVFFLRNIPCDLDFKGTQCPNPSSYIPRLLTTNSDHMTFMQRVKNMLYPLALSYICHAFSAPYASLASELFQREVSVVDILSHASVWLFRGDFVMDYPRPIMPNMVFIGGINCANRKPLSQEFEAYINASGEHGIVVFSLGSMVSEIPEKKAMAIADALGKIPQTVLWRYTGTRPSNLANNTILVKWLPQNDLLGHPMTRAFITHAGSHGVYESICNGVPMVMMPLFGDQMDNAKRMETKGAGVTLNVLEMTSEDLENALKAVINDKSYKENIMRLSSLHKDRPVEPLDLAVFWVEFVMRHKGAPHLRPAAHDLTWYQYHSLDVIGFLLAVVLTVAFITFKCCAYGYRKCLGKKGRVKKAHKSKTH

UGT1A7 = UGT1A7 (Homo sapiens, UniProt Q9HAW7); assay: Substrate glucuronidation by recombinant UGT1A7; format: in vitro ADME; settings: UGT1A7 Bacculosomes 250 μg/ml; 7-HFC 50 μM
Chain of UGT1A7 (Q9HAW7 26-530): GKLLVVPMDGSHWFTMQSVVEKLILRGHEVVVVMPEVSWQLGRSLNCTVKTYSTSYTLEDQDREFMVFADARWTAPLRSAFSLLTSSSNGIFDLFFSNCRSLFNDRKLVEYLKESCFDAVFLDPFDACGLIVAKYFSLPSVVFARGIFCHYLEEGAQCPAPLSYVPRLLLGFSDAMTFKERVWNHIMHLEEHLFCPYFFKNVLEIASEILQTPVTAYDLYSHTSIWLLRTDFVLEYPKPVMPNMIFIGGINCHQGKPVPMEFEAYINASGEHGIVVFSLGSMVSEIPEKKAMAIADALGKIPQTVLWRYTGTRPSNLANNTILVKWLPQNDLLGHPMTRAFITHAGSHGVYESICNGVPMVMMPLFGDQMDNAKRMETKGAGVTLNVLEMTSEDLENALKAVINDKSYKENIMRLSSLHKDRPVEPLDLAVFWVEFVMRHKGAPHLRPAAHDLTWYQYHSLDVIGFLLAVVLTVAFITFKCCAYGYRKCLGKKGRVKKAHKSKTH

UGT2B7 = target: T3, UGT2B7 (Homo sapiens, UniProt P16662); settings: 30 min, 100 μM, pH 7.5
T3 sequence (P16662 24-529): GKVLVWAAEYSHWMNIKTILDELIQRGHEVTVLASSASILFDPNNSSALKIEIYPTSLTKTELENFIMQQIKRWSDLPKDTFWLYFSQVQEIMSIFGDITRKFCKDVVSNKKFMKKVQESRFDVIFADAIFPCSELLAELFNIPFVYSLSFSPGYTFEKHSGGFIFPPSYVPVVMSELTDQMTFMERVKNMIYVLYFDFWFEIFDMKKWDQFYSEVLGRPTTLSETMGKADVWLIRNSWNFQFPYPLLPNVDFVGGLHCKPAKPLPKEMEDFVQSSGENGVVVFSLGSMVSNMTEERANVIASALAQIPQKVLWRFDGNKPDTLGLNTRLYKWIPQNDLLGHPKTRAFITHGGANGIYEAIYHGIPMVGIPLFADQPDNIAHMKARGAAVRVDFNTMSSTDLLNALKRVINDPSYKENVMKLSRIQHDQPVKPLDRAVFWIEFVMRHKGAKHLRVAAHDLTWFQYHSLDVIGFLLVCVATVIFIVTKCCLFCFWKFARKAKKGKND

UGT2B15 = UGT2B15 (Homo sapiens, UniProt P54855)
Chain of UGT2B15 (P54855 24-530): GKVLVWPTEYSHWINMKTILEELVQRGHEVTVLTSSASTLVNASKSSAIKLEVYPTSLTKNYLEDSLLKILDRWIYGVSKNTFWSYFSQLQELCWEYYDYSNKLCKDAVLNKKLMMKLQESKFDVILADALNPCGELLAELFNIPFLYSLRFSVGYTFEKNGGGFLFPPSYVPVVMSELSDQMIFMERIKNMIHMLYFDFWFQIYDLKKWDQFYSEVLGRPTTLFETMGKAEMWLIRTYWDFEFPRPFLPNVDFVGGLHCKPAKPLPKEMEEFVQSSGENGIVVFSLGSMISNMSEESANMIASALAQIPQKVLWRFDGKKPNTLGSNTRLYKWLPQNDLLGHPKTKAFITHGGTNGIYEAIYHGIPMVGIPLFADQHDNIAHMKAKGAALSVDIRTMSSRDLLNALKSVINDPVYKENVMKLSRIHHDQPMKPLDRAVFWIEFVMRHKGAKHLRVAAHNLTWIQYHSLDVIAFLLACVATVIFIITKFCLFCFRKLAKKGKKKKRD

UGT1A3 [4] = target: T2, UGT1A3
UGT1A6 = target: T4, UGT1A6 (Homo sapiens, UniProt P19224)
T4 sequence (P19224 27-532): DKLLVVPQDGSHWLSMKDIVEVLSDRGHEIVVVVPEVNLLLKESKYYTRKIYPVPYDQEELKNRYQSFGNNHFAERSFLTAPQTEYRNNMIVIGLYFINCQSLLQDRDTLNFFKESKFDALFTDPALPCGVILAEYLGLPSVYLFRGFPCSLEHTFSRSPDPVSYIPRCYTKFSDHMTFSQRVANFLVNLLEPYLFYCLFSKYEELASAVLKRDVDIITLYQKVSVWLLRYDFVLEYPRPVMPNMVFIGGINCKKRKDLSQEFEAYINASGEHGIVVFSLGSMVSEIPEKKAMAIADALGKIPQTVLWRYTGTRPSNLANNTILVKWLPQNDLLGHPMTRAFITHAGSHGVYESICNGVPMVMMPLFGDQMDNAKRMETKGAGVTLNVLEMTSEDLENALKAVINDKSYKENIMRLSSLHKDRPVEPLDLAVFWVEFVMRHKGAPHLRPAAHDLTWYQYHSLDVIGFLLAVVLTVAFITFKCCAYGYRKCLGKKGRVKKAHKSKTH

[5] = humans; cited from earlier work
UGT1A1 [6] = target: T1, UGT1A1
[7] = healthy volunteers, concomitant diflunisal; cited from earlier work
[8] = tested on: UGT enzymes of pooled human jejunum microsomes; assay: Inhibition of zidovudine glucuronidation in pooled human jejunum microsomes; format: biochemical; settings: inhibitor 50 μM
Experimental: Increasing the microsomal protein concentration to 1 mg/ml and extending the incubation time to 60 min provided meaningful metabolite levels for inhibition studies.

7-HFC glucuronidation rate in Panvera Bacculosomes as % of Gentest Supersomes (UGT1A1 [1]; UGT1A1): 42%
7-HFC glucuronidation rate (UGT1A1 [1]; UGT1A1 Bacculosomes 250 μg/ml): 346 ± 12 pmol/min/mg protein
Km at 15 min [2]: 85 µM
7-HFC glucuronidation rate in human liver microsomes, times higher than UGT1A6 Supersomes (human liver microsomes): 6 times
7-HFC metabolism rate (human liver microsomes; human liver microsomes (table footnote)): 26,405 ± 272 pmol/min/mg
7-HFC glucuronidation rate (human liver microsomes; liver microsome lot 032101): 29,907±562 pmol/min/mg
7-HFC glucuronidation rate (human liver microsomes; liver microsome lot 062101): 33,039±493 pmol/min/mg
7-HFC glucuronidation rate (human liver microsomes; liver microsome lot 062900): 26,405±272 pmol/min/mg
7-HFC glucuronidation rate in Panvera Bacculosomes as % of Gentest Supersomes (UGT1A3 [3]; UGT1A3): 2%
7-HFC glucuronidation rate (UGT1A3 [3]; UGT1A3 Bacculosomes 250 μg/ml): 17 ± 1 pmol/min/mg protein
7-HFC glucuronidation rate (UGT1A3 [3]; UGT1A3 Supersomes 250 μg/ml): 952 ± 82 pmol/min/mg protein
7-HFC glucuronidation rate (UGT1A7): 564 ± 9 pmol/min/mg protein
SMILES: O=c1cc(C(F)(F)F)c2ccc(O)cc2o1 [7-HFC, 7-hydroxy-4-(trifluoromethyl)coumarin]
7-HFC glucuronidation rate (UGT1A1 [1]; UGT1A1 Supersomes 250 μg/ml): 816 ± 70 pmol/min/mg protein and 929 ± 7 pmol/min/mg protein
mean apparent Vmax for 7-HFC glucuronidation (human liver microsomes; microsome lot 062900, substrate 20-500 μM): 60 nmol/min/mg microsomal protein

LG1/LG2 (UGT2B7): 12
labetalol metabolite LG1, peak area normalized to internal standard (UGT2B7): 993 (52)
labetalol metabolite LG2, peak area normalized to internal standard (UGT2B7): 81 (3)
labetalol metabolism, in words (UGT2B15): No detectable metabolism was observed
labetalol metabolism, in words (UGT1A3 [4]): No detectable metabolism was observed
labetalol metabolism, in words (UGT1A6): No detectable metabolism was observed
labetalol metabolism, in words (UGT1A1 [6]): No detectable metabolism was observed
SMILES: CC(CCc1ccccc1)NCC(O)c1ccc(O)c(C(N)=O)c1 (stereo not drawn) [Labetalol, labetalol]
absolute oral bioavailability [5]: 25-30%

SMILES: O=C(O)c1cc(-c2ccc(F)cc2F)ccc1O [Diflunisal, reference compound]
decrease in indomethacin clearance [7]: 70%

residual metabolism (percentage of control), zidovudine [8]: 42 (3) %
SMILES: CC/C(=C(/CC)c1ccc(O)cc1)c1ccc(O)cc1 [Diethylstilbestrol, reference compound]
